Test results taken from ChEMBL document CHEMBL5154930, “Design, Synthesis, and Biological Evaluations of DOT1L Peptide Mimetics Targeting the Protein-Protein Interactions between DOT1L and MLL-AF9/MLL-ENL” (J Med Chem, 2022).
Activity calls are given as the source filed them. No cut-off for these calls is given here. Non-standard residues stand in square brackets, D forms with d. Residues, ends and D or L forms follow the SMILES beside them. *: point of attachment. X1 = C[C@H](N*)c1nc2cccc(-c3ccccc3)c2[nH]1; Ala(cPent) = N[C@@H](CC1CCCC1)C(=O)O; Pentanoyl(4-Me) = CC(C)CCC(=O)*; Dap(Me) = CNC[C@H](N)C(=O)O

Columns and labels:
[1] = test system: KOPN-8; test: cells; details: Homo sapiens, KOPN-8, 192 h
Description: Anticancer activity against human KOPN-8 cells harbouring MLL-ENL assessed as inhibition of cell growth treated for 8 days measured by CCK-8 kit method

[2] = test system: K562; test: Anticancer activity against human K562 cells assessed as inhibition of cell growth treated for 8 days measured by CCK-8 kit method; type: functional, cell-based; details: K562, 192 h
[3] = Apparent permeability across apical to basolateral side in human Caco-2 cells; type: ADME, cell-based
[4] = test system: MOLM-13; test: Inhibition of methylation of H3K79 in human MOLM-13 cells assessed as inhibition of methylation at HOXA4 gene cluster by chromatin immunoprecipitation assay; type: functional, cell-based
[5] = test system: MOLM-13; test: cells; details: Homo sapiens, MOLM-13, 120 h
Description: Anticancer activity against human MOLM-13 cells harbouring MLL-AF9 assessed as inhibition of cell growth treated for 5 days measured by CCK-8 kit method

[6] = test system: MOLM-13; test: Inhibition of methylation of H3K79 in human MOLM-13 cells assessed as inhibition of methylation at HOXA11 gene cluster by chromatin immunoprecipitation assay; type: functional, cell-based
[7] = test system: MOLM-13; test: Down regulation of HOXA5 gene in human MOLM-13 cells by RNA-sequencing analysis; type: functional, cell-based
[8] = test system: MOLM-13; test: Induction of apoptosis in human MOLM-13 cells at 0.25 to 1 uM by Annexin V-FITC/PI staining based flow cytometry analysis; type: functional, cell-based; details: dose 0.25-1 µM, time 5-9 day, TDE = time-dependent effect
[9] = test system: MOLM-13; test: Inhibition of methylation of H3K79 in human MOLM-13 cells assessed as inhibition of methylation at HOXA-AS2 gene cluster by chromatin immunoprecipitation assay; type: functional, cell-based
[10] = test system: MOLM-13; test: Inhibition of methylation of H3K79 in human MOLM-13 cells assessed as inhibition of methylation at HOXA13 gene cluster by chromatin immunoprecipitation assay; type: functional, cell-based
[11] = test system: MOLM-13; test: Down regulation of ARID2 gene in human MOLM-13 cells by RNA-sequencing analysis; type: functional, cell-based
[12] = molecular target: T1, Protein AF-9 (Homo sapiens) (UniProt P42568); test: Binding affinity to AF9 in human MOLM-13 cells assessed as thermal stabilization of protein at 55 degree Celsius for 12 hrs by CETSA; type: cell-based; details: dose <= 4.0 µM, DDE = dose-dependent effect
T1 sequence (whole entry): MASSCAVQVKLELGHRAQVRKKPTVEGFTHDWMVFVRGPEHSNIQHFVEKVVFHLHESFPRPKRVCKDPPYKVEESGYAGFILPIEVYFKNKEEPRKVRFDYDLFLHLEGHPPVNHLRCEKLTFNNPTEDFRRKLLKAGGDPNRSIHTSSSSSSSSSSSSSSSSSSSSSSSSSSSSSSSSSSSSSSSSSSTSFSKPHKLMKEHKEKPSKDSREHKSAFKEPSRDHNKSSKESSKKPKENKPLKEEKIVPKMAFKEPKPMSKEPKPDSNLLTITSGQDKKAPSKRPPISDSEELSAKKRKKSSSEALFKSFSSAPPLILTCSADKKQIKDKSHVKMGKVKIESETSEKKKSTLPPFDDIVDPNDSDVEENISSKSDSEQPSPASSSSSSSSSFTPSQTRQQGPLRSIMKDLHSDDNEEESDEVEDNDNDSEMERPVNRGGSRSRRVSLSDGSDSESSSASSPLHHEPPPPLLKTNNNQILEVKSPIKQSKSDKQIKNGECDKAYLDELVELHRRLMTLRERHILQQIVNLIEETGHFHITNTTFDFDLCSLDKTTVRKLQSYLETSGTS

[13] = test system: MOLM-13; test: Down regulation of GATA2 gene in human MOLM-13 cells by RNA-sequencing analysis; type: functional, cell-based
[14] = test system: MOLM-13; test: cells; details: Homo sapiens, MOLM-13, 96 h
Description: Anticancer activity against human MOLM-13 cells harbouring MLL-AF9 assessed as inhibition of cell growth treated for 4 days measured by CCK-8 kit method

[15] = test system: MOLM-13; test: Induction of apoptosis in human MOLM-13 cells at 0.25 to 1 uM assessed as cleaved Caspase-3 by Annexin V-FITC/PI staining based flow cytometry analysis; type: functional, cell-based; details: dose 0.25-1 µM
[16] = Stability in human plasma assessed as compound remaining measured upto 1440 mins by HPLC analysis; type: ADME, cell-free; details: read-out: Stability
[17] = test system: MOLM-13; test: cells; details: Homo sapiens, MOLM-13, 216 h
Description: Anticancer activity against human MOLM-13 cells harbouring MLL-AF9 assessed as inhibition of cell growth treated for 9 days measured by CCK-8 kit method

[18] = test system: MOLM-13; test: Down regulation of CDK1 gene in human MOLM-13 cells by RNA-sequencing analysis; type: functional, cell-based
[19] = test system: MV4-11; test: Anticancer activity against human MV4-11 cells assessed as inhibition of cell growth treated for 8 days measured by CCK-8 kit method; type: functional, cell-based; details: MV4-11, 192 h
[20] = molecular target: T2, Protein AF-9 (Homo sapiens, UniProt P42568); test: Binding affinity to MBP-tagged human recombinant AF9 (487 to 568 residues) incubated for 40 mins by measuring fluorescence polarization by microplate reader method
T2 sequence (P42568 whole entry): T1 sequence (whole entry)

[21] = test system: MOLM-13; test: Inhibition of methylation of H3K79 in human MOLM-13 cells assessed as inhibition of methylation at HOXA10 gene cluster by chromatin immunoprecipitation assay; type: functional, cell-based
[22] = test system: MOLM-13; test: Down regulation of SSBP2 gene in human MOLM-13 cells by RNA-sequencing analysis; type: functional, cell-based
[23] = test system: MOLM-13; test: Down regulation of HOXA10 gene in human MOLM-13 cells by RNA-sequencing analysis; type: functional, cell-based
[24] = test system: MOLM-13; test: Induction of apoptosis in human MOLM-13 cells at 0.25 to 1 uM assessed as cleaved PARP by Annexin V-FITC/PI staining based flow cytometry analysis; type: functional, cell-based; details: dose 0.25-1 µM
[25] = test system: MOLM-13; test: Down regulation of CNOT6L gene in human MOLM-13 cells by RNA-sequencing analysis; type: functional, cell-based
[26] = test system: MOLM-13; test: Down regulation of ARID1B gene in human MOLM-13 cells by RNA-sequencing analysis; type: functional, cell-based
[27] = test system: MOLM-13; test: Down regulation of CDK6 gene in human MOLM-13 cells by RNA-sequencing analysis; type: functional, cell-based
[28] = test system: MOLM-13; test: Down regulation of JMJD1C gene in human MOLM-13 cells by RNA-sequencing analysis; type: functional, cell-based
[29] = test system: MOLM-13; test: Down regulation of HOXA9 gene in human MOLM-13 cells by RNA-sequencing analysis; type: functional, cell-based
[30] = test system: MOLM-13; test: Down regulation of MCM2 gene in human MOLM-13 cells by RNA-sequencing analysis; type: functional, cell-based
[31] = test system: MOLM-13; test: Down regulation of HPGD gene in human MOLM-13 cells by RNA-sequencing analysis; type: functional, cell-based
[32] = test system: MOLM-13; test: Down regulation of HOXA3 gene in human MOLM-13 cells by RNA-sequencing analysis; type: functional, cell-based
[33] = test system: MOLM-13; test: Down regulation of HOXA11 gene in human MOLM-13 cells by RNA-sequencing analysis; type: functional, cell-based
[34] = test system: MOLM-13; test: Down regulation of PBX3 gene in human MOLM-13 cells by RNA-sequencing analysis; type: functional, cell-based
[35] = test system: MOLM-13; test: cells; details: Homo sapiens, MOLM-13, 168 h
Description: Anticancer activity against human MOLM-13 cells harbouring MLL-AF9 assessed as inhibition of cell growth treated for 7 days measured by CCK-8 kit method

[36] = test system: MOLM-13; test: Down regulation of RUNX1 gene in human MOLM-13 cells by RNA-sequencing analysis; type: functional, cell-based
[37] = test system: MOLM-13; test: Inhibition of methylation of H3K79 in human MOLM-13 cells assessed as inhibition of methylation at HOXA5 gene cluster by chromatin immunoprecipitation assay; type: functional, cell-based
[38] = test system: MOLM-13; test: Down regulation of CDKN1B gene in human MOLM-13 cells by RNA-sequencing analysis; type: functional, cell-based
[39] = test system: RS4-11; test: Anticancer activity against human RS4-11 cells assessed as inhibition of cell growth treated for 8 days measured by CCK-8 kit method; type: functional, cell-based; details: RS4-11, 192 h

CNC[C@H](NC(=O)[C@@H](NC(=O)[C@@H]1CCCN1C(=O)CCC(C)C)C(C)C)C(=O)N[C@@H](CC1CCCC1)C(=O)N[C@@H](C)c1nc2cccc(-c3ccccc3)c2[nH]1 ({Pentanoyl(4-Me)}-PV[Dap(Me)][Ala(cPent)]-X1)
IC50 [1]: 100 nM | IC50 [2]: 59000 nM | Papp A→B [3]: 1.97 ×10⁻⁶ cm/s | inhibition [4]: Active | IC50 [5]: 703 nM | inhibition [6]: Active | Activity [7]: Active | Activity [8]: Tde | inhibition [9]: Active | inhibition [10]: Active | Activity [11]: Active | Activity [12]: Dde | Activity [13]: Active | IC50 [14]: 972 nM | Activity [15]: Active | remaining at 24 h [16]: 81.5% | IC50 [17]: 44 nM | Activity [18]: Active | IC50 [19]: 220 nM | Ki [20]: 9 nM | inhibition [21]: Active | Activity [22]: Active | Activity [23]: Active | Activity [24]: Active | Activity [25]: Active | Activity [26]: Active | Activity [27]: Active | Activity [28]: Active | Activity [29]: Active | Activity [30]: Active | Activity [31]: Active | Activity [32]: Active | Activity [33]: Active | Activity [34]: Active | IC50 [35]: 167 nM | Activity [36]: Active | inhibition [37]: Active | Activity [38]: Active | IC50 [39]: 240 nM
